Among the data in patent US8269026B2, “Lupane derivatives useful for treating HIV” (priority 2008, dated 2012) are IC50 values, retold here.

Structures are written as SMILES. pIC50: −log10 of the molar value. Like-named read-outs stand apart in the source and are kept apart here.

The subject of the assay is HIV-1 (HIVIIIB) replication in MT2 cell line. Description: HIV-1 replication in MT2 cell line with and without 30% human serum (viral RT activity in supernatant). The conditions noted are these: Human immunodeficiency virus 1, MT2 cells, average IC50 if tested more than once. It is filed as cell-based. Put shortly: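 Read-out is supernatant reverse transcriptase activity on day 5 post-infection, giving IC50 and IC90. Compounds were titrated in complete medium ± 30% human serum, re-dosed after 3 days, on MT2 cells exposed for 3 h to HIVIIIB at MOI 0.5 then washed.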

The mark [1] stands for this setting: with 30% human serum, read-out: MT2 (HIVIIIB) with HS 30% IC50 range.
The mark [2] stands for this setting: without human serum, read-out: MT2 (HIVIIIB) IC50 range.

As usually defined, the pIC50 is the negative decadic logarithm of the IC50, by convention in mol/L. `CC(C)OC(=O)N[C@@]12CC[C@]3(C)[C@H](CC[C@@H]4[C@@]5(C)CC[C@H](OC(=O)CC(C)(C)C(=O)O)C(C)(C)[C@@H]5CC[C@]43C)C1=C(C(C)C)C(=O)C2` [20-2]: the pIC50 is greater than 6.70 under setting [1] and greater than 6.70 under setting [2].

Consider `CC(C)C1=C2C3CCC4[C@@]5(C)CC[C@H](OC(=O)CC(C)(C)C(=O)O)C(C)(C)C5CC[C@@]4(C)[C@]3(C)CC[C@@]2(NC(=O)OCC2CC2)CC1=O` (stereo partly drawn) [20-3, 3β-O-(3′,3′-Dimethylsuccinyl)-17β-cyclopropylmethoxycarbonylamino-21-oxolup-18-ene], for which the pIC50 is greater than 6.70 under setting [1] and greater than 6.70 under setting [2].

`CC(C)C1=C2C3CCC4[C@@]5(C)CC[C@H](OC(=O)CC(C)(C)C(=O)O)C(C)(C)C5CC[C@@]4(C)[C@]3(C)CC[C@@]2(NC(=O)OC2CCCC2)CC1=O` (stereo partly drawn) [20-4, 3β-O-(3′,3′-Dimethylsuccinyl)-17β-cyclopentyloxycarbonylamino-21-oxolup-18-ene]: the pIC50 under setting [1] is greater than 6.70.

Regarding `CC(C)C1=C2C3CCC4[C@@]5(C)CC[C@H](OC(=O)CC(C)(C)C(=O)O)C(C)(C)C5CC[C@@]4(C)[C@]3(C)CC[C@@]2(NC(=O)OC2CCCCC2)CC1=O` (stereo partly drawn) [20-5, 3β-O-(3′,3′-Dimethylsuccinyl)-17β-cyclohexyloxycarbonylamino-21-oxolup-18-ene], under setting [1], the pIC50 is greater than 6.70. Consider `CC(C)C1=C2C3CCC4[C@@]5(C)CC[C@H](OC(=O)CC(C)(C)C(=O)O)C(C)(C)C5CC[C@@]4(C)[C@]3(C)CC[C@@]2(NC(=O)OC2CCN(C(=O)OC(C)(C)C)CC2)CC1=O` (stereo partly drawn) [20-6, 3β-O-(3′,3′-Dimethylsuccinyl)-17β-[(1-carboxylic acid tert-butyl ester)-piperidine-4-oxycarbonylamino]-21-oxolup-18-ene], for which the pIC50 is, setting by setting: under setting [1], greater than 6.70; under setting [2], greater than 6.70. On to `CC(C)C1=C2C3CCC4[C@@]5(C)CC[C@H](OC(=O)CC(C)(C)C(=O)O)C(C)(C)C5CC[C@@]4(C)[C@]3(C)CC[C@@]2(NC(=O)OCC2CCCCC2)CC1=O` (stereo partly drawn) [20-7, 3β-O-(3′,3′-Dimethylsuccinyl)-17β-cyclohexylmethoxycarbonylamino-21-oxolup-18-ene], for which the pIC50 was greater than 6.70 under setting [1] and greater than 6.70 under setting [2]. For the molecule `CC(C)C1=C2C3CCC4[C@@]5(C)CC[C@H](OC(=O)CC(C)(C)C(=O)O)C(C)(C)C5CC[C@@]4(C)[C@]3(C)CC[C@@]2(NC(=O)OCc2ccccc2)CC1=O` (stereo partly drawn) [20-8, 3β-O-(3′,3′-Dimethylsuccinyl)-17β-benzyloxycarbonylamino-21-oxolup-18-ene], under setting [1], the pIC50 was greater than 6.70. As to `CC(C)C1=C2C3CCC4[C@@]5(C)CC[C@H](OC(=O)CC(C)(C)C(=O)O)C(C)(C)C5CC[C@@]4(C)[C@]3(C)CC[C@@]2(NC(=O)OC2CCC2)CC1=O` (stereo partly drawn) [20-9, 3β-O-(3′,3′-Dimethylsuccinyl)-17β-cyclobutyloxycarbonylamino-21-oxolup-18-ene], under setting [1], the pIC50 was greater than 6.70. Still for that read-out and setting: the result for `CC(C)C1=C2C3CCC4[C@@]5(C)CC[C@H](OC(=O)CC(C)(C)C(=O)O)C(C)(C)C5CC[C@@]4(C)[C@]3(C)CC[C@@]2(NC(=O)OC(C)C2CC2)CC1=O` (stereo partly drawn) [20-10, 3β-O-(3′,3′-Dimethylsuccinyl)-17β-(1-cyclopropylethoxycarbonylamino)-21-oxolup-18-ene] reads greater than 6.70. As to `CC(C)C1=C2C3CCC4[C@@]5(C)CC[C@H](OC(=O)CC(C)(C)C(=O)O)C(C)(C)C5CC[C@@]4(C)[C@]3(C)CC[C@@]2(NC(=O)OCC2(C)CC2)CC1=O` (stereo partly drawn) [20-11, 3β-O-(3′,3′-Dimethylsuccinyl)-17β-(1-methyl-cyclopropylmethoxycarbonylamino)-21-oxolup-18-ene], the pIC50 under setting [1] is greater than 6.70. Same read-out and setting: the result for `CC(C)C1=C2C3CCC4[C@@]5(C)CC[C@H](OC(=O)CC(C)(C)C(=O)O)C(C)(C)C5CC[C@@]4(C)[C@]3(C)CC[C@@]2(NC(=O)OCC2(N)CC2)CC1=O` (stereo partly drawn) [20-12, 3β-O-(3′,3′-Dimethylsuccinyl)-17β-(1-amino-cyclopropylmethoxycarbonylamino)-21-oxolup-18-ene] reads greater than 6.70.
